In patent US11712434B2, “Compound having anti-cancer effect, and preparation method therefor and use thereof” (3D MEDICINES (BEIJING) CO., LTD., priority 2016, dated 2023):
Values joined by “and” are separate entries in the source; they are usually repeats but may differ in a detail not shown here. Identical values can stand only once. “Also recorded” adds a separate entry of the source.

Assay: Plasma stability study of compound 8 in rat plasma
Format: in vitro ADME, SD rat
Details: for Residual compound 8 concentration: 37° C., Repeat 1 and 2
Method: The purpose of this example was to investigate the stability of incubation of compound 8 in rat plasma (compound 8 was metabolized to form intermediate compound 12 and Linifanib, intermediate compound 12 was further metabolized to form Linifanib), and the metabolites were quantified and analyzed, and the stability of the incubation system was verified by a positive drug, which provided a reference for the evaluation of the drug-forming properties of the compound.
1. Instruments and Materials • Instrument: API3000 LC/MS, ABI • Materials: Male SD rats (200-250 g), Beijing Vital River • Test sample: positive drug and its metabolites M1 and M2, compound 8 and its metabolite compound 12 and Linifanib.
2. Compound 8 Plasma Stability Study • Test animal • Type: SD rat; Quantity: 2 • Sex: male; weight: 200-250 g;
Experimental Procedure • 1). Animal blood was collected, blood samples were placed in EDTA anticoagulation tubes, centrifuged at 3000 g for 15 min at 4° C., plasma was separated, and 2 blood samples were mixed in equal volumes; • 2). Weighed a certain amount of compound 8 and dissolved in DMSO:MeOH (2:8), prepared into 200 μM mother liquor by purity conversion, and added the compound to plasma to reach a final concentration of 1 μg/mL in plasma. The organic ratio in the system was not more than 0.5%. • 3). Incubated in a 37° C. water bath and set the sampling points to 0, 0.5, 1, 2, 4, 6, 8 h. At each sampling point, 100 μL of each sample was collected and 300 μL of acetonitrile (with internal standard) was added for precipitation, centrifuged at 12,000 rpm for 5 min, and 200 μL of supernatant was taken for analysis by LC-MS/MS. • 4). Configured the standard curve to quantify compound 8, compound 12 and Linifanib

amount of Compound 12 and Linifanib produced by metabolism: extremely small
Residual compound 8 concentration (0 h): 1200 ng/mL and 680 ng/mL
Residual compound 8 concentration (0.5 h): 1190 ng/mL and 1450 ng/mL
Residual compound 8 concentration (1 h): 1460 ng/mL and 1620 ng/mL
Residual compound 8 concentration (2 h): 960 ng/mL and 1040 ng/mL
Residual compound 8 concentration (4 h): 876 ng/mL and 868 ng/mL
Residual compound 8 concentration (6 h): 1110 ng/mL and 1190 ng/mL
Residual compound 8 concentration (8 h): 1200 ng/mL and 680 ng/mL
Structure (SMILES): Cc1ccc(F)c(NC(=O)Nc2ccc(-c3cccc4[nH]nc(NC(=O)CCCCCCCCCCCNC(=O)C[C@H](N)C(=O)N[C@@H](CCC(=O)N[C@@H](CCC(=O)N[C@@H](CCC(=O)N[C@@H](CCC(=O)O)C(=O)O)C(=O)O)C(=O)O)C(=O)O)c34)cc2)c1 [Compound 8]
stability in plasma (up to 8 h): relatively stable; also recorded: very good
